Test [1] has as its target T1, rI-FABP (SEQ ID NO: 3) variant L2P14 F7 - K27C, 18G 27C 31M 72A (Rattus norvegicus, UniProt P02693, G32M/K28C/L73A/M19G).
T1 construct: made in house
The test is described as follows: bilirubin binding to L2P14F7-K27C probe. To be noted: Table 5, acrylodan. On the procedure:
(§1) Also described are analytical/mathematical methods for calibrating and using the bilirubin probes. Bilirubin probes are calibrated to determine their binding affinity for bilirubin (dissociation constant Kd) under conditions, such as temperature, pH and solution composition, that correspond to samples in which it is desired to know the unbound bilirubin concentration. Binding isotherms are performed in aqueous buffer by measuring the change in fluorescence of the bilirubin probes in response to increasing bilirubin concentrations (“titration data”). The set of fluorescence responses at each bilirubin concentration are fitted with an appropriate equation (“calibration equation”) that correctly describes the fluorescence response as a function of the bilirubin concentration, the probe concentration, specific spectroscopic characteristics, and the Kd.

The target of test [2] is T2, rI-FABP (SEQ ID NO: 3) variant L24P19 C7, 14R 18L 27A 38V 60R 73F 106A 115R 117D (Rattus norvegicus, UniProt P02693, A74F/K28A/L39V/L73A/M19L/Q116R/R107A/V61R/Y118D/Y15R).
T2 construct: Residues 27 and 106 disputed: row prints 27A 106A
Nature of the test: bilirubin binding to L24P19 C7 as listed in Table 6. The note with it: Table 6, acrylodan. As for the experimental part: as §1

Test [3] concerns the target T3, rI-FABP (SEQ ID NO: 3) variant L24P19 C7 K27K 26C, 14R 18L 26C 38V 60R 73F 106C 115R 117D (Rattus norvegicus, UniProt P02693, A74F/L39V/L73A/M19L/Q116R/R107C/V27C/V61R/Y118D/Y15R).
T3 construct: made in house
The test is described as follows: bilirubin binding to L24P19C7 26C probe. To be noted: Table 5, acrylodan. On the procedure:
as §1
(§2) . […] The optimal probe performance was obtained with cysteine at positions 25 or 26.

Test [4] addresses T4, rI-FABP (SEQ ID NO: 3) variant L2P14F7 MGI KR14 K27C, MGI - KR14 - 18G 27C 31M 72A (Rattus norvegicus, UniProt P02693, A2G/G32M/INS2I/K101R/K126R/K130R/K131R/K17R/K21R/K28C/K30R/K38R/K47R/K51R/K89R/K8R/K93R/K95R/L73A/M19G).
T4 construct: made in house
The test is described as follows: bilirubin binding to L2P14F7 MGI KR14 K27C probe. The note with it: Table 5, acrylodan. As for the experimental part: as §1

Test [5] has as its target T5, rI-FABP (SEQ ID NO: 3) variant L2P14F7 MGI KR14 K27K, MGI - KR14 - 18G 27K 31M 72A (Rattus norvegicus, UniProt P02693, G32M/K101R/K126R/K17R/K21R/K30R/K38R/K47R/K51R/K89R/K8R/K93R/K95R/L73A/M19G).
T5 construct: made in house
Nature of the test: bilirubin binding to L2P14F7 MGI KR14 K27K probe. The note with it: Table 6, acrylodan. As for the experimental part: as §1

Test [6] has as its target T6, rI-FABP (SEQ ID NO: 3) variant L2P14 F7-KR14 - K27C, KR14-18G 27C 31M 72A (Rattus norvegicus, UniProt P02693, G32M/K101R/K126R/K17R/K21R/K28C/K30R/K38R/K47R/K51R/K89R/K8R/K93R/K95R/L73A/M19G).
T6 construct: made in house
The test is described as follows: bilirubin binding to L2P14F7-KR14-K27C probe. The note with it: Table 5, acrylodan. As for the experimental part: as §1

In test [7] the target is T7, rI-FABP (SEQ ID NO: 3) variant L24P19 C7 K27A, 14R 18L 27A 38V 60R 73F 106C 115R 117D (Rattus norvegicus, UniProt P02693, A74F/K28A/L39V/L73A/M19L/Q116R/R107C/V61R/Y118D/Y15R).
T7 construct: made in house
Nature of the test: bilirubin binding to L24P19C7 K27A probe. The note with it: Table 5, acrylodan. As for the experimental part: as §1

For test [8], the target named is T8, rI-FABP (SEQ ID NO: 3) variant L22P33 A10, 38R 72A 73N 106S 115C (Rattus norvegicus, UniProt P02693, A74N/L39R/L73A/Q116C/R107S).
T8 construct: made in house
The test is described as follows: bilirubin binding to L22P33A10 probe. The note with it: Table 5, acrylodan. As for the experimental part: as §1

For test [9], the target named is T9, rI-FABP (SEQ ID NO: 3) variant L24P19 C7 K27K 24C, 14R 18L 24C 38V 60R 73F 106C 115R 117D (Rattus norvegicus, UniProt P02693, A74F/L39V/L73A/M19L/N25C/Q116R/R107C/V61R/Y118D/Y15R).
T9 construct: made in house
The test is described as follows: bilirubin binding to L24P19C7 24C probe. To be noted: Table 5, acrylodan. As for the experimental part:
as §1, §2

Test [10] deals with T10, rat intestinal fatty acid binding protein (rI-FABP, SEQ ID NO: 3) variant L24P19C7, 14R 18L 38V 60R 73F 106C 115R 117D, SEQ ID NO: 36 (Rattus norvegicus, UniProt P02693, A74F/L39V/L73A/M19L/Q116R/R107C/V61R/Y118D/Y15R).
T10 construct: made in house
Nature of the test: bilirubin binding to L24P19C7 probe (fluorescence titration). On the procedure:
Also described are analytical/mathematical methods for calibrating and using the bilirubin probes. Bilirubin probes are calibrated to determine their binding affinity for bilirubin (dissociation constant Kd) under conditions, such as temperature, pH and solution composition, that correspond to samples in which it is desired to know the unbound bilirubin concentration. Binding isotherms are performed in aqueous buffer by measuring the change in fluorescence of the bilirubin probes in response to increasing bilirubin concentrations (“titration data”). The set of fluorescence responses at each bilirubin concentration are fitted with an appropriate equation (“calibration equation”) that correctly describes the fluorescence response as a function of the bilirubin concentration, the probe concentration, specific spectroscopic characteristics, and the Kd. […] Bilirubin probes are derived from a rat intestinal fatty acid binding protein (rI-FABP) as described previously for unbound FFA (FFAu) probes in U.S. Pat. No. 7,601,510, U.S. publication 2010/0298162 and [Huber A H, Zhu […] and […]. Fluorescence Sensor for the Quantification of Unbound Bilirubin Concentrations. Clin Chem 58: 869-876, 2012; Huber […], Zhu B and […]. Fatty acid-specific fluorescent probes and their use in resolving mixtures of different unbound free fatty acids in equilibrium with albumin. […]

pKd: −log10 of the molar value.

T10 sequence (P02693 with tags, fused parts or gaps Y15R/M19L/L39V/V61R/L73A/A74F/R107C/Q116R/Y118D): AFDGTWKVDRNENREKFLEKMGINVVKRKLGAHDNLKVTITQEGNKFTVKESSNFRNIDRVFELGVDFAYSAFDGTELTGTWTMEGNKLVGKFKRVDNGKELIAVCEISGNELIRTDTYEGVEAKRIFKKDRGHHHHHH
T7 sequence (P02693 with tags, fused parts or gaps Y15R/M19L/K28A/L39V/V61R/L73A/A74F/R107C/Q116R/Y118D): as the sequence (P02693 with tags, fused parts or gaps Y15R/M19L/L39V/V61R/L73A/A74F/R107C/Q116R/Y118D) above, with K27A counted along it
T8 sequence (P02693 with tags, fused parts or gaps L39R/L73A/A74N/R107S/Q116C): as the sequence (P02693 with tags, fused parts or gaps Y15R/M19L/L39V/V61R/L73A/A74F/R107C/Q116R/Y118D) above, with R14Y, L18M, V38R, R60V, F73N, C106S, R115C, D117Y counted along it
T6 sequence (P02693 with tags, fused parts or gaps with the stated changes): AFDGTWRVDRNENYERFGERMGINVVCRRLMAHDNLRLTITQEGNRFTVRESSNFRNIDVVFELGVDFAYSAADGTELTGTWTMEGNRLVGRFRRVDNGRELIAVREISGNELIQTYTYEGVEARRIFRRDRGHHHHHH
T9 sequence (P02693 with tags, fused parts or gaps Y15R/M19L/N25C/L39V/V61R/L73A/A74F/R107C/Q116R/Y118D): as the sequence (P02693 with tags, fused parts or gaps Y15R/M19L/L39V/V61R/L73A/A74F/R107C/Q116R/Y118D) above, with N24C counted along it
T1 sequence (P02693 with tags, fused parts or gaps M19G/K28C/G32M/L73A): as the sequence (P02693 with tags, fused parts or gaps Y15R/M19L/L39V/V61R/L73A/A74F/R107C/Q116R/Y118D) above, with R14Y, L18G, K27C, G31M, V38L, R60V, F73A, C106R, R115Q, D117Y counted along it
T2 sequence (P02693 with tags, fused parts or gaps Y15R/M19L/K28A/L39V/V61R/L73A/A74F/R107A/Q116R/Y118D): as the sequence (P02693 with tags, fused parts or gaps Y15R/M19L/L39V/V61R/L73A/A74F/R107C/Q116R/Y118D) above, with K27A, C106A counted along it
T5 sequence (P02693 with tags, fused parts or gaps with the stated changes): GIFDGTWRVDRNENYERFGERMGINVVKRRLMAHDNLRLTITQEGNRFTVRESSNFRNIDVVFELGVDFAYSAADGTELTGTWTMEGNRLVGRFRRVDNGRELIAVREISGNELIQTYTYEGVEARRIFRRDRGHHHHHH
T3 sequence (P02693 with tags, fused parts or gaps Y15R/M19L/V27C/L39V/V61R/L73A/A74F/R107C/Q116R/Y118D): as the sequence (P02693 with tags, fused parts or gaps Y15R/M19L/L39V/V61R/L73A/A74F/R107C/Q116R/Y118D) above, with V26C counted along it
T4 sequence (P02693 with tags, fused parts or gaps with the stated changes): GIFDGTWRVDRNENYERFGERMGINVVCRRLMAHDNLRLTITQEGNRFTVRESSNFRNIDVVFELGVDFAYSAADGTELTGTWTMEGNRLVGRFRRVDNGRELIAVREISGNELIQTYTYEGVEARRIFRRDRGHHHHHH

As for `C=CC1=C(C)/C(=C/c2[nH]c(Cc3[nH]c(/C=C4\NC(=O)C(C)=C4C=C)c(C)c3CCC(=O)O)c(CCC(=O)O)c2C)NC1=O` [bilirubin], the negative logarithm of the Kd (pKd) in [1] is 6.60; in [2], 7.48; in test [3] it was 7.72; in [4], 6.46; in test [5], 7.08; in test [6] it was 6.28. The negative logarithm of the Kd (pKd) was 7.68 in test [7]; 6.61 in [8]; 7.05 in [9]; 7.66 in [10] (22° C., aqueous bilirubin, acrylodan label); 7.46 in test [10] (Table 5, acrylodan).

(Values after US10295551B2, “Development and use of fluorescent probes of unbound bilirubin” (Alan Marc Kleinfeld, priority 2011, dated 2019).)
